Converted amounts (≈) assume the structure as drawn. Like-named read-outs stand apart in the source and are kept apart here.
How the values were obtained:
[1] = cited from earlier work
[2] = Solubility of busulfan in various solvents; format: physicochemical
Description: The solvents chosen for the impregnation are those in which busulfan has appreciable solubility (acetone, acetonitrile, chloroform, dichloromethane, dimethyl carbonate) (Table 18).

For Nc1ccn([C@@H]2O[C@H](CO)[C@@H](O)C2(F)F)c(=O)n1 [Gemcitabine], the “Solubility in water” value [1] is given as “water soluble”.
For CC(=O)O[C@H]1C(=O)[C@@]2(C)[C@H]([C@H](OC(=O)c3ccccc3)[C@]3(O)C[C@H](OC(=O)[C@H](O)[C@@H](NC(=O)c4ccccc4)c4ccccc4)C(C)=C1C3(C)C)[C@]1(OC(C)=O)CO[C@@H]1C[C@@H]2O [Paclitaxel], the “Solubility in ethanol and in DMSO” value ([1]; ethanol, DMSO) is listed as “about 50 g/L”.
For NC(N)=O [Urea], the Solubility in water ([1]; 20° C.) is given as 1080 mg/mL (≈ 18000 mM).
With CS(=O)(=O)OCCCCOS(C)(=O)=O [busulfan, 1,4-butanediol dimethylsulfonate] the Busulfan solubility ([2]; Chloroform) was 8 mg/mL, the Busulfan solubility ([2]; Ethanol) was <<<4 mg/ml and the Busulfan solubility ([2]; Ether) was <<<4 mg/ml. For the same compound, the Busulfan solubility ([2]; Hexane) was <<<4 mg/ml, the Busulfan solubility ([2]; Methanol) was <<<4 mg/ml and the Busulfan solubility ([2]; Tetrahydrofuran) was about 5 mg/mL. For the same compound, the Busulfan solubility ([2]; Toluene) was about 4 mg/mL.
